These results are taken from US12358915B2, “METTL3 inhibitory compounds” (STORM THERAPEUTICS LTD., priority 2019, dated 2025).

The experiment concerns the target T1, METTL3/14 (Homo sapiens, UniProt Q86U44).
T1 construct: The enzyme used was full-length his-tagged METTL3; His; made in house
In words: METTL3/14 methyltransferase assay (METTL3_14 RFMS, RapidFire mass spectrometry).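 Further: recombinant His-tagged METTL3 with FLAG-tagged METTL14 from baculovirus, SAH product quantified by mass spectrometry against isotope-labelled internal standards, 60 min at room temperature, scaled between no-RNA and DMSO-only wells.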 The class given is biochemical. The conditions noted are these: read-out: METTL3_14 RFMS IC50.

Setting [1] is: 5 nM METTL3/14, 0.2 μM RNA substrate, 0.5 μM SAM, lower limit of the assay IC50=5 nM, Compounds 63-265.
The mark [2] stands for this setting: 5 nM METTL3/14, 0.2 μM RNA substrate, 0.5 μM SAM, lower limit of the assay IC50=5 nM, Compounds 1-62.
Where [3] appears, read: 5 nM METTL3/14, 0.2 μM RNA substrate, 0.5 μM SAM, lower limit of the assay IC50=5 nM, Compounds 266-351.

Read-outs that look alike come from different tables or passages of the source.

T1 sequence (Q86U44 whole entry): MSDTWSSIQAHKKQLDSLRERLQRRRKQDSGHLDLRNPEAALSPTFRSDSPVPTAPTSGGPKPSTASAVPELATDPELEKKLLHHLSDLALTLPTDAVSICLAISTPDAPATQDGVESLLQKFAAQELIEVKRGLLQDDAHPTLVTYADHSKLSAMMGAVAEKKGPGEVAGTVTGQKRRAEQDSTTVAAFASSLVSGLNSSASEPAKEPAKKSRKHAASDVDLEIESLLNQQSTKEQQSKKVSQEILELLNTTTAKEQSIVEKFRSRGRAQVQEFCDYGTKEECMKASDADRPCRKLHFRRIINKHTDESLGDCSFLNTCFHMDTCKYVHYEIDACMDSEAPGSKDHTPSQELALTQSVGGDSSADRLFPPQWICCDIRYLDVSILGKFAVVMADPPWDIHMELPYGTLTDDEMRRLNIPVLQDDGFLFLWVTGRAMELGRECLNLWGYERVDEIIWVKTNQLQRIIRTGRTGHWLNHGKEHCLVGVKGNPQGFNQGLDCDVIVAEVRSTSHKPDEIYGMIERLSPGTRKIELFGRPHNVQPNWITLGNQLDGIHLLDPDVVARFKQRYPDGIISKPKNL
T1 sequence (Q9HCE5 whole entry partner): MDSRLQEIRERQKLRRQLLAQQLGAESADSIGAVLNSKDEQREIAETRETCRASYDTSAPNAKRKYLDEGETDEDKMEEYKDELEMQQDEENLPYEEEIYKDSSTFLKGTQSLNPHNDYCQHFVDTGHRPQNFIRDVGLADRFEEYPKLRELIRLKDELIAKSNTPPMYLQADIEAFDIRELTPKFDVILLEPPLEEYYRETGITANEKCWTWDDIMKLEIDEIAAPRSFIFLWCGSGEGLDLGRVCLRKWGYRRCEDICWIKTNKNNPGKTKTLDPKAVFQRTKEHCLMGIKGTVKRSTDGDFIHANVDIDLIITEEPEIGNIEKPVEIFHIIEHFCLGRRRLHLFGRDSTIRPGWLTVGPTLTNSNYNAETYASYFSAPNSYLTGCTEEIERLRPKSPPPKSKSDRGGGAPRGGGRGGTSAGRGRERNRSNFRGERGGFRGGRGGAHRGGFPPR

On to `O=C(NCc1cn2cc(C(Cc3ccccc3)N(CC3CCC3)CC3CCC3)ccc2n1)c1cc(=O)n2ccccc2n1` (centres unmarked) [Example 314], for which the IC50 (in general, the concentration at which inhibition is half-maximal) is 7110 nM. As for `O=C(NCc1cn2cc(CNC3CCC(F)(F)CC3)ccc2n1)c1cc(=O)n2ccccc2n1` [Compound 115, N-[(6-{[(4,4-difluoro-cyclohexyl)amino]methyl}imidazo [1,2-a]pyridin-2-yl)methyl]-4-oxo-4H-pyrido [1,2-a]pyrimidine-2-carboxamide], the IC50 under setting [1] amounted to 43.5 nM.

As to `Cc1ccc2nc(CNC(=O)c3cc(=O)c4ccccc4o3)cn2c1` [Compound 12, N-({6-methylimidazo[1,2-a]pyridin-2-yl}methyl)-4-oxo-4H-chromene-2-carboxamide], the IC50 under setting [2] was 1410 nM. For the compound `Cc1ccn2cc(CNC(=O)c3cc(=O)n4ccccc4n3)nc2c1` [Compound 17, N-({7-methylimidazo[1,2-a]pyridin-2-yl}methyl)-4-oxo-4H-pyrido[1,2-a]pyrimidine-2-carboxamide], under setting [2], the IC50 turned out to be 2240 nM. With `CC(C)(C)CNCc1ccc2nc(Cn3cc(-c4cncc5[nH]ncc45)nn3)cn2c1` [Example 256, (2,2-dimethylpropyl)({2-[(4-{1H-pyrazolo[3,4-c]pyridin-4-yl}-1H-1,2,3-triazol-1-yl)methyl]imidazo[1,2-a]pyridin-6-yl}methyl)amine], under setting [1], the IC50 amounted to 246 nM. As for `O=C(NCc1cn2ccc(F)cc2n1)c1cccc2[nH]ncc12` [Compound 5, N-({7-fluoroimidazo[1,2-a]pyridin-2-yl}methyl)-1H-indazole-4-carboxamide], under setting [2], the concentration for half-maximal inhibition (IC50) was 9450 nM.

Consider `CC1(C)CCN(Cc2ccc3nc(CNC(=O)c4cc(=O)c5c(F)cccc5o4)cn3c2)CC1` [Example 310, N-[[6-[(4,4-dimethyl-1-piperidyl)methyl]imidazo[1,2-a]pyridin-2-yl]methyl]-5-fluoro-4-oxo-chromene-2-carboxamide], for which the IC50 under setting [3] amounted to 186 nM. `COc1cccc2c1OCC(c1ccc3nc(CNC(=O)c4cc(=O)n5ccccc5n4)cn3c1)NC2` (centres unmarked) [Example 234, N-{[6-(9-methoxy-2,3,4,5-tetrahydro-1,4-benzoxazepin-3-yl)imidazo[1,2-a]pyridin-2-yl]methyl}-4-oxo-4H-pyrido[1,2-a]pyrimidine-2-carboxamide]: the IC50 under setting [1] was found to be 3440 nM. Take `Cc1ccc2nc(C(C)(O)c3cnc(-c4cccc5[nH]ncc45)s3)cn2c1` (centres unmarked) [Example 335, 1-[2-(1H-indazol-4-yl)thiazol-5-yl]-1-(6-methylimidazo[1,2-a]pyridin-2-yl)ethanol]: under setting [3], the IC50 was 7290 nM. On to `O=C(NCc1cn2cc(CNCC3CCCCN3)ccc2n1)c1cc(=O)n2ccccc2n1` (centres unmarked) [Compound 240, 4-oxo-N-{[6-({[(piperidin-2-yl)methyl]amino}methyl)imidazo[1,2-a]pyridin-2-yl]methyl}-4H-pyrido[1,2-a]pyrimidine-2-carboxamide], for which the IC50 under setting [1] was found to be 260 nM.

For `Cc1ccc2nc(CNC(=O)c3cc(Br)cc4[nH]ncc34)cn2c1` [Compound 10, 6-bromo-N-({6-methylimidazo[1,2-a]pyridin-2-yl}methyl)-1H-indazole-4-carboxamide], the IC50 under setting [2] was 1610 nM.

For the compound `O=C(NCc1cn2cc(CNC[C@H]3C[C@H]4CC[C@@H]3C4)ccc2n1)c1cc(=O)n2ccccc2n1` [Compound 348, N-({6-[({[(1R,2S,4S)-bicyclo[2.2.1]heptan-2-yl]methyl}amino)methyl]imidazo[1,2-a]pyridin-2-yl}methyl)-4-oxo-4H-pyrido[1,2-a]pyrimidine-2-carboxamide], under setting [3], the IC50 stood at 9.02 nM.

`O=C(NCc1cn2cc(CNCC(F)F)ccc2n1)c1cc(=O)n2ccccc2n1` [Compound 119, N-[(6-{[(2,2-difluoroethyl)amino]methyl}imidazo[1,2-a]pyridin-2-yl)methyl]-4-oxo-4H-pyrido[1,2-a] pyrimidine-2-carboxamide]: the IC50 under setting [1] turned out to be 578 nM. With `C[C@H](NCc1ccc2nc(CNC(=O)c3cc(=O)n4ccccc4n3)cn2c1)c1ccccc1` [Compound 76, 4-oxo-N-{[6-({[(1S)-1-phenylethyl]amino}methyl)imidazo [1,2-a]pyridin-2-yl]methyl}-4H-pyrido[1,2-a] pyrimidine-2-carboxamide], the IC50 under setting [1] came to 30 nM.
